From ChEMBL document CHEMBL1135113 (Bioorg Med Chem Lett, 2002)
The source made the active and inactive calls. No cut-off for these calls is given here.

Columns and labels:
Homo sapiens = species on record: Homo sapiens; experiment: Efficacy of compound in cell migration of primary human Smooth Muscle Cells (SMC) was determined; format: functional
[1] = molecular target: Integrin alpha-5/beta-1 (Homo sapiens) (UniProt P05556+P08648); experiment: Cell adhesion activity against alpha5-beta1 integrin; format: protein-complex assay
[2] = molecular target: T1, Integrin alpha-4/beta-1 (Homo sapiens) (UniProt P05556+P13612); experiment: Cell adhesion activity against alpha4-beta1 integrin at 10e-5 M; format: protein-complex assay
[3] = molecular target: T2, Integrin alpha-IIb/beta-3 (Homo sapiens, UniProt P05106+P08514); experiment: Selectivity against alpha IIb beta-3 integrin; Not active; format: protein-complex assay
Integrin alpha-V/beta-3 = Integrin alpha-V/beta-3 (Homo sapiens, UniProt P05106+P06756); experiment: Selectivity against alphaV-beta3 integrin; format: protein-complex assay
[4] = molecular target: T2, Integrin alpha-IIb/beta-3; experiment: Selectivity against Integrin alpha-IIb beta-3 receptor versus fibrinogen; Not active; format: protein-complex assay
[5] = molecular target: T1, Integrin alpha-4/beta-1 (Homo sapiens); experiment: Cell adhesion activity against alpha4-beta1 integrin at 10 e-5M (not active); format: protein-complex assay

Chain of Integrin alpha-V/beta-3 (P05106 27-788 limits assumed): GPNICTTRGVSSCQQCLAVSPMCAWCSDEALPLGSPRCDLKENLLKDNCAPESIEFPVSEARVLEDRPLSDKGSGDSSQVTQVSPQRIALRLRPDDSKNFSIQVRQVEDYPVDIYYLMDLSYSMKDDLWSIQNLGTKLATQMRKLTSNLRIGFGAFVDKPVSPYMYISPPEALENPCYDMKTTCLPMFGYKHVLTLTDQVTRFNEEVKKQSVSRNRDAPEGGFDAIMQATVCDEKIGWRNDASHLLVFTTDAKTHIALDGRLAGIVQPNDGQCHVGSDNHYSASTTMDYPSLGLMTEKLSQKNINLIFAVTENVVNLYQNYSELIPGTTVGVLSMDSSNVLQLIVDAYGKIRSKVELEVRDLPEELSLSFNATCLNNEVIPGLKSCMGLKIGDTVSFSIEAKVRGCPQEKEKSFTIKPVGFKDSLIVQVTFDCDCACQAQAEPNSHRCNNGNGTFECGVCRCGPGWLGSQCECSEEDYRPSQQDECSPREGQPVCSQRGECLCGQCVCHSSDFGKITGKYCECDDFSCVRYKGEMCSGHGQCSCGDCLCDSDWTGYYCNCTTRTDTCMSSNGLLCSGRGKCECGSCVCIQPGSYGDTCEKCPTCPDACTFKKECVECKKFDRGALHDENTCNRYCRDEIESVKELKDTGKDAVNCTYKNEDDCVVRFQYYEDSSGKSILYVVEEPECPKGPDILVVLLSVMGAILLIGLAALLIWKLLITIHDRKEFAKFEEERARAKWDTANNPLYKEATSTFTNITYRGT
Chain of Integrin alpha-V/beta-3 (P06756 31-889 limits assumed): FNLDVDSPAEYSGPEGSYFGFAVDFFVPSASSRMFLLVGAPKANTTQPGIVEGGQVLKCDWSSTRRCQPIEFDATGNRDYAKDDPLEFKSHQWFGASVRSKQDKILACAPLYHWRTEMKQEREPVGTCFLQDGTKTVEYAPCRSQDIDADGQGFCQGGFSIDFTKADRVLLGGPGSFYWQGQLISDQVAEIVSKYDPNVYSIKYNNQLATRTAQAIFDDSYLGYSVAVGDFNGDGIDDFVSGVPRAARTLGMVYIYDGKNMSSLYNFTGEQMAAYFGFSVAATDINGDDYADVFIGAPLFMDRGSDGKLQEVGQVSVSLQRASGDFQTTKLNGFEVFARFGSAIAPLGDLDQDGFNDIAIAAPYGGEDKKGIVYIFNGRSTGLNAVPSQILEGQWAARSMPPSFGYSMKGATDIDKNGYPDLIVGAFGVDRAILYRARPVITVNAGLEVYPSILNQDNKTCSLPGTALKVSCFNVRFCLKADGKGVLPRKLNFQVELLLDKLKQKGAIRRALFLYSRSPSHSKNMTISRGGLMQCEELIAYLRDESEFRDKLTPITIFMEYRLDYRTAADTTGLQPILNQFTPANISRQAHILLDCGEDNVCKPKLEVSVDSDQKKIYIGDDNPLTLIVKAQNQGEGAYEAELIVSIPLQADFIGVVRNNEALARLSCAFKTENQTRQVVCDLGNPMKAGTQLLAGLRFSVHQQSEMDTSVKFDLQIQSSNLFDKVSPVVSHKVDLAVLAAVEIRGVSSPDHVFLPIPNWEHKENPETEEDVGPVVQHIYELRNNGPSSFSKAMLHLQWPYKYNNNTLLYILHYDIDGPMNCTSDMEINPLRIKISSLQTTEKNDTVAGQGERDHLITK
Chain of Integrin alpha-V/beta-3 (P06756 891-1048 limits assumed): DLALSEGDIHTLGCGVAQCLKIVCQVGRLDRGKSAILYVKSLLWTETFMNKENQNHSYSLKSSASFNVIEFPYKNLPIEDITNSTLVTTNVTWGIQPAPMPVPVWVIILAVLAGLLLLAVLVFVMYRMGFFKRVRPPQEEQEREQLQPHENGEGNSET
T2 sequence (P05106 27-788 limits assumed): as the sequence (P05106 27-788 limits assumed) above
T2 sequence (P08514 32-887 limits assumed): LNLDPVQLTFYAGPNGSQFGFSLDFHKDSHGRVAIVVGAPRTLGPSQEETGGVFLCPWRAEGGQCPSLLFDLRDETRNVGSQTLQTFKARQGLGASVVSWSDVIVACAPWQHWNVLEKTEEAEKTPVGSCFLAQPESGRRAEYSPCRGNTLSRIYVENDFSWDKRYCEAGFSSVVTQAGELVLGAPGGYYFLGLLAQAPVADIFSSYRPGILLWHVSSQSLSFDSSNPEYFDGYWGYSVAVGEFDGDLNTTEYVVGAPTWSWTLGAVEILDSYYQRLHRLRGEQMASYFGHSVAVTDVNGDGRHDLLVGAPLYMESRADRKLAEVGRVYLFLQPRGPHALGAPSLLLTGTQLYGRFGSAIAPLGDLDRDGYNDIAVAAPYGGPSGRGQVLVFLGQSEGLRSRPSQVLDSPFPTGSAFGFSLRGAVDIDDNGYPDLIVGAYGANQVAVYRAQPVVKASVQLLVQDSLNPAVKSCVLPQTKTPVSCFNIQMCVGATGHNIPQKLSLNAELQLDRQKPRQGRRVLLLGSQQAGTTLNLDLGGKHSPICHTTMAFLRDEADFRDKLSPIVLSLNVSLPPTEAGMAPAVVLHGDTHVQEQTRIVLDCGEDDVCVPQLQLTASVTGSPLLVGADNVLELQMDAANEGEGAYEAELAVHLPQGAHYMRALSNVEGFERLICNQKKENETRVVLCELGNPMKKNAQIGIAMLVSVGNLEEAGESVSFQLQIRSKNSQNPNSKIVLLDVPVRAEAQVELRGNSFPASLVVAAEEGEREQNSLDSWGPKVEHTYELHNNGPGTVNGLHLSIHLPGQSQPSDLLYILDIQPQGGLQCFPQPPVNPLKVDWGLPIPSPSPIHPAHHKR
T2 sequence (P08514 891-1039 limits assumed): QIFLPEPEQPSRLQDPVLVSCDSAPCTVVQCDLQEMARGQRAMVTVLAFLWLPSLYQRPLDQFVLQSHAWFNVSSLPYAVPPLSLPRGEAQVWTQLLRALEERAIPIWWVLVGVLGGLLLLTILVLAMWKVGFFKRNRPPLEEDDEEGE

IC50 (Homo sapiens)	inhibition [1]	inhibition [2]	IC50 [3]	IC50 (Integrin alpha-V/beta-3)	IC50 [4]	inhibition [5]	Structure (SMILES)
1200 nM	inactive	2%	Not Active	0.4 nM	–	–	O=C(CNC(=O)c1ccc(NC(=O)NCc2ccccc2)o1)NC[C@H](NC(=O)OCc1ccccc1)C(=O)O
500 nM	inactive	–	–	1.8 nM	Not Active	inactive	O=C(CNC(=O)c1cnc(NC(=O)NCc2ccccc2)o1)NC[C@H](NC(=O)OCc1ccccc1)C(=O)O
